We go through 8 compounds from ChEMBL document CHEMBL5346968, “Exploring Structural Determinants of Bias among D4 Subtype-Selective Dopamine Receptor Agonists” (J Med Chem, 2023).

The structures appear in SMILES notation. pEC50, pKi: −log10 of the molar value.

What is called pEC50 is the EC50 on a negative log10 scale, so that one unit is a factor of ten. The term pKi denotes the negative decadic logarithm of the Ki, by convention in mol/L. The term Papp B→A denotes the apparent permeability from the basolateral to the apical side of a cell layer.

Series [1] addresses T1, D(4) dopamine receptor (Homo sapiens, UniProt P21917).
T1 sequence (P21917 whole entry): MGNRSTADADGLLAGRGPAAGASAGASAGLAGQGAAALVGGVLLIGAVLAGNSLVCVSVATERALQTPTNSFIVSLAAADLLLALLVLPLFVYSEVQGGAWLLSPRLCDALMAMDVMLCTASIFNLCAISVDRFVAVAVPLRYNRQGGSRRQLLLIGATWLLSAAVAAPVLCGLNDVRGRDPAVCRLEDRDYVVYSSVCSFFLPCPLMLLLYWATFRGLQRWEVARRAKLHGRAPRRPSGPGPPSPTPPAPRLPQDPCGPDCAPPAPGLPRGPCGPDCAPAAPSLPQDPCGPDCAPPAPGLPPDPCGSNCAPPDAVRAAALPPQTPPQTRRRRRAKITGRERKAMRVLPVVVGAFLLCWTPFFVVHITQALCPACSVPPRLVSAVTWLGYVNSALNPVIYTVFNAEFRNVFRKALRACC
Put plainly: Agonist activity at human dopamine D4 receptor transfected in HEK293T cells co-transfected with Galpha-qi assessed as activation of GPCR-mediated receptor signaling incubated for 90 mins by IP-one HTRF assay. It is filed as functional, cell-based. (In general: Time-resolved FRET reads energy transfer from a long-lived donor to a nearby acceptor.)

Series [2] addresses T1, D(4) dopamine receptor. Put plainly: Agonist activity at PKA-tagged human dopamine D4 receptor transfected in HEK293T cells expressing (EA)-beta-arrestin assessed as beta-arrestin recruitment incubated for 3 hrs by chemiluminescence based PathHunter assay. It is filed as functional, cell-based. For orientation: Recruitment of arrestin is a read-out of receptor activation apart from second messengers.

The target of series [3] is T1, D(4) dopamine receptor. The experiment in a line: Agonist activity at PKA-tagged human dopamine D4 receptor transfected in HEK293T cells expressing (EA)-beta-arrestin and GRK2 assessed as beta-arrestin recruitment incubated for 3 hrs by chemiluminescence based PathHunter assay. It is filed as functional, cell-based.
Series [4] addresses T2, D(2) dopamine receptor (Homo sapiens, UniProt P14416). Put plainly: Displacement of [3H]-N-methylspiperone from human dopmaine D2L receptor expressed in CHO cell membrane assessed as inhibition constant by competition binding assay. It is filed as cell membranes.
Series [5] concerns the target T2, D(2) dopamine receptor. Put plainly: Displacement of [3H]-N-methylspiperone from human dopmaine D2S receptor expressed in CHO cell membrane assessed as inhibition constant by competition binding assay. It is filed as cell membranes. For orientation: In a radioligand displacement assay an active substance lowers the binding of a labelled ligand.
Series [6] concerns the target D(3) dopamine receptor (Homo sapiens, UniProt P35462). Put plainly: Displacement of [3H]-N-methylspiperone from human dopmaine D3 receptor expressed in HEK293T cells assessed as inhibition constant by competition binding assay. It is filed as cell-based.
The target of series [7] is D(1A) dopamine receptor (Homo sapiens, UniProt P21728). The experiment in a line: Displacement of [3H]SCH23390 from human dopamine D1 receptor expressed in HEK293T cells assessed as inhibition constant by competition binding assay. It is filed as cell-based.
Chain of D(1A) dopamine receptor (P21728 whole entry): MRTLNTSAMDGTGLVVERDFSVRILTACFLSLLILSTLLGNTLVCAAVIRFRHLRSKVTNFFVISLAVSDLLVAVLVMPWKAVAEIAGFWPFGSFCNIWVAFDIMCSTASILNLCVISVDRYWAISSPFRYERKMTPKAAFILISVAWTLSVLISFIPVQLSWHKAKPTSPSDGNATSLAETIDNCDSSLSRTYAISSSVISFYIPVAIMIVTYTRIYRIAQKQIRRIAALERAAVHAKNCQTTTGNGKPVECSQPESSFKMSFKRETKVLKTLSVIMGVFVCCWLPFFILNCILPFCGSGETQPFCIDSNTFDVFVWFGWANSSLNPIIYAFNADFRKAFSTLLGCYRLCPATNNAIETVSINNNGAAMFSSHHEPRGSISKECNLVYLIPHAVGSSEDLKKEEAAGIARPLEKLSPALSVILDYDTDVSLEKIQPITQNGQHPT
Series [8] concerns the target D(1B) dopamine receptor (Homo sapiens, UniProt P21918). Put plainly: Displacement of [3H]SCH23390 from human dopamine D5 receptor expressed in HEK293T cells assessed as inhibition constant by competition binding assay. It is filed as cell-based.
In series [9] the target is T3, Alpha-1A adrenergic receptor (Homo sapiens, UniProt P35348).
T3 sequence (P35348 whole entry): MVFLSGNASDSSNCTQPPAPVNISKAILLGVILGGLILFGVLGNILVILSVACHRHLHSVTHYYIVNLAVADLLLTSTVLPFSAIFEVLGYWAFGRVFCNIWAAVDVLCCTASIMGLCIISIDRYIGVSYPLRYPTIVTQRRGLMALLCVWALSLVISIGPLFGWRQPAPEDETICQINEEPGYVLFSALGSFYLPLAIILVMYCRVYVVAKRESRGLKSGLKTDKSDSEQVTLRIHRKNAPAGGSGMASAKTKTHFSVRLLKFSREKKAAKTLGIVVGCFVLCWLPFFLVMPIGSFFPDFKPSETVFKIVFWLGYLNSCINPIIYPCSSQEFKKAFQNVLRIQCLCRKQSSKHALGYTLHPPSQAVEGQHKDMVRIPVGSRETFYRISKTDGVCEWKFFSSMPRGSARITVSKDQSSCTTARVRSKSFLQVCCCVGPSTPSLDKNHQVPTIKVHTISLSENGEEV
The experiment in a line: Displacement of [3H]prazosin from adrenergic alpha 1A receptor (unknown origin) expressed in HEK293T cells assessed as inhibition constant by competition binding assay. It is filed as cell-based.

Series [10] deals with T4, Alpha-2A adrenergic receptor (Homo sapiens, UniProt P08913).
T4 sequence (P08913 whole entry): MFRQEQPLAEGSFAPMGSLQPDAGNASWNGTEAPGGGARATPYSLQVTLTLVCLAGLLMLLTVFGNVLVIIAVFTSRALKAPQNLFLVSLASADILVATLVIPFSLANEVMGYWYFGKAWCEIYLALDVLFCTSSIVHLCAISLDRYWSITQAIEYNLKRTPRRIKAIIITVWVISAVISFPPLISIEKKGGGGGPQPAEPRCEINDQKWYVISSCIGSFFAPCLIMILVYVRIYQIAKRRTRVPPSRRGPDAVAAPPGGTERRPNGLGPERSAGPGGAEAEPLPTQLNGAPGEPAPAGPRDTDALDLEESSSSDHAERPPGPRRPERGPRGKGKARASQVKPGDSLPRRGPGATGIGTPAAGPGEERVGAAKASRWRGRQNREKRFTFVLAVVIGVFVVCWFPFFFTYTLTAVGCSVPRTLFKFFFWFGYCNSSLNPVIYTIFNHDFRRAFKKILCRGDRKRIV
The experiment in a line: Displacement of [3H]RX821002 from adrenergic alpha 2A receptor (unknown origin) expressed in HEK293T cells assessed as inhibition constant by competition binding assay. It is filed as cell-based.

In series [11] the target is T5, 5-hydroxytryptamine receptor 1A (Homo sapiens, UniProt P08908).
T5 sequence (P08908 whole entry): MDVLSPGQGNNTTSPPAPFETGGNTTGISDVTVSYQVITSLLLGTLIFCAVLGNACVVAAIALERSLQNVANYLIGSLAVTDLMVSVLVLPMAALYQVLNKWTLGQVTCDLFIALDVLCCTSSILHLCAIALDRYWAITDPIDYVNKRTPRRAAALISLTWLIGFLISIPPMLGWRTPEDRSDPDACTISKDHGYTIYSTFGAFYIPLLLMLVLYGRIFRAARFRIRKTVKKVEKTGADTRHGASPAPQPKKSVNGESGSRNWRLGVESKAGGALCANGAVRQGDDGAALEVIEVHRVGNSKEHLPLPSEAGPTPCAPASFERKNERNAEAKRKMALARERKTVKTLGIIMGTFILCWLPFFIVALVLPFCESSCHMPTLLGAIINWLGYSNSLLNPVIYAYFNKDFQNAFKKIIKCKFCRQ
Put plainly: Displacement of [3H][…] from 5-HT1A receptor (unknown origin) expressed in HEK293T cells assessed as inhibition constant by competition binding assay. It is filed as cell-based.

The target of series [12] is 5-hydroxytryptamine receptor 2A (Homo sapiens, UniProt P28223). The experiment in a line: Displacement of [3H]ketanserin from 5-HT2A receptor (unknown origin) expressed in HEK293T cells assessed as inhibition constant by competition binding assay. It is filed as cell-based.
Chain of 5-hydroxytryptamine receptor 2A (P28223 whole entry): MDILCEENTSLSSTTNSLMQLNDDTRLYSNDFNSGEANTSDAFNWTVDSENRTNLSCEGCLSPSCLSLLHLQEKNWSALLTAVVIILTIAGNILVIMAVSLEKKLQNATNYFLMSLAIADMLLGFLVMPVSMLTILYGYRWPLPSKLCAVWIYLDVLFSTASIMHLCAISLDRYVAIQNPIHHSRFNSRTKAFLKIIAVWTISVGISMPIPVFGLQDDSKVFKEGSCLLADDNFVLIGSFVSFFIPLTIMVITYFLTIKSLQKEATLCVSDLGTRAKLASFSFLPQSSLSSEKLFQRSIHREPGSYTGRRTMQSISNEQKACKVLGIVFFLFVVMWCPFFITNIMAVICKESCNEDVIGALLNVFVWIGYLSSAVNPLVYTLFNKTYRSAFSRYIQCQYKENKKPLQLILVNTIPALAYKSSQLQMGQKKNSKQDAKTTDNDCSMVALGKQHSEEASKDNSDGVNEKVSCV
Series [13] is described as follows: Drug metabolism in pooled rat liver microsomes assessed as O-demethylation mediated metabolite formation at 40 uM measured upto 60 mins in the presence of NADPH by HPLC(UV) analysis. It is filed as ADME, Microsome. Conditions: 1 h.
Series [14] can be described thus: Drug metabolism in pooled rat liver microsomes assessed as hydroxylation mediated metabolite formation at 40 uM measured upto 60 mins in the presence of NADPH by HPLC(UV) analysis. It is filed as ADME, Microsome. The settings on record: 1 h.
Series [15] in a line: Permeability of the compound across basal to apical membrane in human Caco-2 cells at 50 uM incubated for 4 hrs by HPLC(UV) analysis. The settings on record: caco-2, 4 h. It is filed as ADME, cell-based.
Series [16] in a line: Apparent permeability of the compound across basal to apical membrane in human Caco-2 cells at 50 uM incubated for 4 hrs by HPLC(UV) analysis. It is filed as ADME, cell-based.
Series [17] can be described thus: Retention time of the compound by HPLC(UV) method. It is filed as physicochemical.
Series [18] can be described thus: Metabolic stability in pooled rat liver microsomes assessed as parent compound remaining at 40 uM measured after 60 mins in the presence of NADPH by HPLC(UV) analysis. It is filed as ADME, Microsome. Conditions: read-out: Stability.
The nature of series [19]: Permeability of the compound across basal to apical membrane in human Caco-2 cells at 10 uM incubated for 4 hrs by HPLC(UV) analysis. It is filed as ADME, cell-based. Conditions: caco-2, 4 h.
Series [20] is described as follows: Permeability of the compound across basal to apical membrane in human Caco-2 cells at 10 uM incubated for 4 hrs in the presence of valspodar by HPLC(UV) analysis. It is filed as ADME, cell-based. The settings on record: caco-2, 4 h.
The nature of series [21]: Permeability of the compound across basal to apical membrane in human Caco-2 cells at 5 uM incubated for 4 hrs by HPLC(UV) analysis. Conditions: caco-2, 4 h. It is filed as ADME, cell-based.
The nature of series [22]: Permeability of the compound across basal to apical membrane in human Caco-2 cells at 5 uM incubated for 4 hrs in the presence of valspodar by HPLC(UV) analysis. It is filed as ADME, cell-based. The settings on record: caco-2, 4 h.

Chain of D(3) dopamine receptor (P35462 whole entry): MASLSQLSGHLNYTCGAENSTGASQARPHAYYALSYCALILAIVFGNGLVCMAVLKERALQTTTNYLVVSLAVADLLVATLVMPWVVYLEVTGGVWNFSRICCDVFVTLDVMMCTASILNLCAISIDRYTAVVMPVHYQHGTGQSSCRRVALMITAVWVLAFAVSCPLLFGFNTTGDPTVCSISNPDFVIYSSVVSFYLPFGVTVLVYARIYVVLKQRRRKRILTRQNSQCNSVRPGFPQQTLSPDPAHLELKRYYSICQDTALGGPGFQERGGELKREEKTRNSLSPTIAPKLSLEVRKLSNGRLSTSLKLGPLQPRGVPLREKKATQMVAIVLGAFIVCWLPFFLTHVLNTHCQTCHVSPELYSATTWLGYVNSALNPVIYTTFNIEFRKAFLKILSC
Chain of D(1B) dopamine receptor (P21918 whole entry): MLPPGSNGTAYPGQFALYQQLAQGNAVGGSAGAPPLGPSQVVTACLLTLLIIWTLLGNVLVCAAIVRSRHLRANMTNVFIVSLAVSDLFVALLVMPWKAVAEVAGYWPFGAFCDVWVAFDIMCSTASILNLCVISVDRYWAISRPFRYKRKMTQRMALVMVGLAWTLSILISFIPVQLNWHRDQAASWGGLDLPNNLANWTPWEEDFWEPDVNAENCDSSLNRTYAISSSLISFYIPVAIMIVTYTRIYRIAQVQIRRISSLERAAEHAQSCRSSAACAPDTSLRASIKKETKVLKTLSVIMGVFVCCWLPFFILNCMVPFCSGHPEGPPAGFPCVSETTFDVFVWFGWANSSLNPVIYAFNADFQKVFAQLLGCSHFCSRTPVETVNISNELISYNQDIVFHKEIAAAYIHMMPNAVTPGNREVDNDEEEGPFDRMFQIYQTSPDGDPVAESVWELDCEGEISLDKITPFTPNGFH
T2 sequence (P14416 whole entry): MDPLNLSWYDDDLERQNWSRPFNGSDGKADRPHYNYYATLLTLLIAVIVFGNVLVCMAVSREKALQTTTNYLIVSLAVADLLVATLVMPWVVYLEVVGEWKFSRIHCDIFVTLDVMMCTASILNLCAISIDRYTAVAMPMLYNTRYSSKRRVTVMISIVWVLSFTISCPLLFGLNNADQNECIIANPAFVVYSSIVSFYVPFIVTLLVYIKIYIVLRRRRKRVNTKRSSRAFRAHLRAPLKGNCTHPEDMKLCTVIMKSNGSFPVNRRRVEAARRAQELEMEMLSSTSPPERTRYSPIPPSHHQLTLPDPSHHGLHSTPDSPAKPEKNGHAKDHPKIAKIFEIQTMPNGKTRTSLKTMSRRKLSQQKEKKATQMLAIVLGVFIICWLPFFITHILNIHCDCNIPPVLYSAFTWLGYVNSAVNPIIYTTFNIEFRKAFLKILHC

`COc1ccccc1N1CCN(CCCNC(=O)NN(Cc2ccc(F)cc2)c2ccccc2)CC1`: the values for the pEC50 in [1], in series [2] and in series [3] were 8.74, 6.46 and 7.38, respectively.

For `COc1ccccc1N1CCN(CCCNC(=O)NN(Cc2ccccc2)c2ccc(F)cc2)CC1`, the values for the negative-log EC50 (pEC50) in [1], in [2] and in [3] were 7.39, 6.33 and 6.39, respectively.

With `COc1ccccc1N1CCN(CCCNC(=O)Nc2ccccc2-c2ccc(-c3ccccc3)cc2)CC1`, the negative logarithm of the Ki (pKi) in series [4] was 7.28; in series [5] it was 7.44; in [6], 7.36; in [7] it was 7.80; in series [8], 6.46; in series [9] it was 8.09. Also, the figures for the pKi in [10], in [11] and in [12] were 6.82, 7.00 and 6.80, respectively. Also, the Drug metabolism result in [13] and in series [14] was “Metabolite_Detected” throughout. Also, the permeability entry in [15] is “Impermeable”. Also, the Papp B→A at 4 h, 50 µM in series [16] is greater than 1 ×10⁻⁶ cm/s. Moreover, the Retention_time in series [17] was found to be 4.37 min.

As to `COc1ccccc1N1CCN(CCCNC(=O)Nc2ccccc2-c2ccccc2)CC1`, the pKi in series [4] was 6.68; in [5], 7.00; in series [6], 7.24; in series [7], 6.14; in series [8], 5.35; in series [9] it was 8.15. Besides, the results for the pKi in [10], in series [11] and in series [12] were 7.55, 7.60 and 6.02, respectively. The Drug metabolism result in series [13] and in series [14] was “Metabolite_Detected” throughout. In [18], the remaining at 1 h, 40 µM is 57%. The permeability in series [19] worked out at 22.2%; in [20], 18.3%. The compound also displayed a Retention_time in [17] of 3.91 min.

Regarding `COc1ccc(-c2ccccc2)c(CNC(=O)NCCCN2CCN(c3ccccc3OC)CC2)c1`, the negative logarithm of the Ki (pKi) is 6.89 in series [4]; 7.11 in series [5]; 6.92 in series [6]; 6.55 in series [7]; 5.52 in series [8]; 8.05 in series [9]. The negative logarithm of the Ki (pKi) in series [10] is 6.70; in series [11] it was 7.57; in series [12] it was 6.92.

For `COCCOCCOc1ccc(NC(=O)NCCCN2CCN(c3ccccc3OC)CC2)c(-c2ccccc2)c1`, the pKi in series [4] is 6.89; in [5], 7.13; in series [6], 7.07; in [7] it was 7.66; in series [8] it was 5.41; in series [9], 7.42. The figures for the pKi in series [10], in series [11] and in series [12] were 6.39, 6.66 and 5.82, respectively.

Consider `COc1ccccc1N1CCN(CCCNC(=O)NCc2ccccc2-c2ccccc2)CC1`, for which the negative-log Ki (pKi) was 6.72 in series [4]; 6.92 in [5]; 6.57 in series [6]; 6.32 in [7]; 5.48 in series [8]; 7.96 in series [9]. Further, the figures for the pKi in series [10], in series [11] and in series [12] were 6.92, 7.21 and 6.85, respectively. Also, the Drug metabolism entry in [13] and in [14] was “Metabolite_Detected” throughout. For the same compound, the remaining at 1 h, 40 µM in series [18] is 56%. For the same compound, the values for the permeability in series [19] and in [20] were 15.7% and 10.5%, respectively. Further, the Retention_time in [17] is 4.09 min.

With `C[C@H]1O[C@@H](O[C@H]2[C@@H](O)C[C@H](O[C@H]3[C@@H](O)C[C@H](O[C@H]4CC[C@@]5(C)[C@H](CC[C@@H]6[C@@H]5C[C@@H](O)[C@]5(C)[C@@H](C7=CC(=O)OC7)CC[C@]65O)C4)O[C@@H]3C)O[C@@H]2C)C[C@H](O)[C@@H]1O` [DIGOXIN], the permeability in series [21] is recorded as 22.9%; in series [22], 12.1%.
